Earlier results, collected in publication PMC10379611 (International Journal of Molecular Sciences, 2023).

Conditions: recommended clinical dose of Paxlovid; cited from earlier work

CC(C)c1nc(CN(C)C(=O)N[C@H](C(=O)N[C@@H](Cc2ccccc2)C[C@H](O)[C@H](Cc2ccccc2)NC(=O)OCc2cncs2)C(C)C)cs1 [Ritonavir]
observed plasma concentrations: 0.5 µM
